Consider 26 compounds from patent US8946260B2, “17α-hydroxylase/C17,20-lyase inhibitors” (Novartis AG, priority 2010, dated 2015).

SMILES strings stand for the structures.

One experiment deals with T1, recombinant Human CYP17 enzyme (17-20 lyase) (Homo sapiens, UniProt P05093).
T1 construct: made in house; host or cells: A549 cells, adenoviral expression system; purified cell membrane preparations
T1 sequence (P05093 1-508): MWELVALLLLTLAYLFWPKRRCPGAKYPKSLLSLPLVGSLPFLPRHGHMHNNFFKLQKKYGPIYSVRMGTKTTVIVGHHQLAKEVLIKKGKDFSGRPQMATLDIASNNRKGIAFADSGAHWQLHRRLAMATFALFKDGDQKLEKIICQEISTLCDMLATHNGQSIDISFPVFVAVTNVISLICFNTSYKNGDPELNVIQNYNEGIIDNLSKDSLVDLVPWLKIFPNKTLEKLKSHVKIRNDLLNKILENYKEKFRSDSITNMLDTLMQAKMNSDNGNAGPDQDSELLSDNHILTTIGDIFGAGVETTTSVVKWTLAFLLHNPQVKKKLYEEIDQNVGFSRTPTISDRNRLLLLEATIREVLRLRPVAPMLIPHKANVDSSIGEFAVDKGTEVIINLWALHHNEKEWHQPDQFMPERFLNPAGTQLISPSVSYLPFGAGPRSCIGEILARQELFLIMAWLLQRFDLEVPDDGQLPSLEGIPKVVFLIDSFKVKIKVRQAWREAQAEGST
In words: Cytochrome P450, 17-20 lyase (CYP17-lyase) assay, 17-α-hydroxy pregnenolone [21-3H] as substrate. It counts as biochemical. Conditions: human CYP17 lyase; substrate 0.25 μM; room temperature, 90 minutes. From the text: 1) Cytochrome P450, 17-20 Lyase (CYP17-Lyase) Assay Development Using Recombinant Human CYP17 Enzyme and 17-α-Hydroxy Pregnenolone [21-3H] as the Substrate.
Cytochrome P450, 17-α-Hydroxylase, 17-20 lyase (CYP17) is a multi functional enzyme that plays a key role in the biosynthesis of steroid hormones. It catalyses both conventional hydroxylation and also the carbon-carbon bond cleavage reactions (Peter Lee-Robichaud et al, Biochem. J, (1997) 321, 857-63). In the hydroxylation reaction, it converts progesterone and pregnenolone to the corresponding hydroxylated products 17-α-hydroxy progesterone and 17-α-hydroxy pregnenolone. In the lyase reaction, it catalyzes the conversion of these hydroxylated substrates to Androstenedione and Dehydroepiandrosterone (DHEA) respectively. In the Cyp17 lyase assay described here, the conversion of 17-α-hydroxy pregnenolone to Dehydroepiandrosterone and acetic acid is being monitored.
Assay method was adopted from a published protocol with some modifications to suit our requirements (Dmitry N Grigoryev et al, Analytical Biochemistry, (1999) 267, 319-330). The conversion of 17-α-hydroxy pregnenolone to Dehydroepiandrosterone is accompanied by the release of acetic acid. In the Cyp17 lyase assay, 17-α-hydroxy pregnenolone labeled with tritium (3H) at position 21 is used as the substrate. Chloroform extraction removes the radioactive steroids and acetic acid is taken into aqueous layer. The tritiated acetic acid released in the assay thus extracted is quantified to determine the enzyme activity.
Initial buffer conditions were, 50 mM Phosphate buffer, pH 7.5 was used as the starting buffer for Cyp17 lyase activity based on the data published in US patent publication No. US2004/0198773 A1. […] Human Cyp 17 gene was cloned and expressed in Adenoviral expression system in A549 cell lines. The purified cell membrane preparations were used as the source for Human CYP17 enzyme. Total protein concentration: 8 mg/mL.
For routine screening, the assay was set up with 16 μg of enzyme in 50 μL reaction volume. 17α-hydroxy pregnenolone [21-3H] was added to a final concentration of 0.25 μM. NADPH is used at a final concentration of 4.2 mM. Total reaction volume was made up to 50 μL with 50 mM Phosphate buffer pH 7.5. The reaction mixture was incubated at room temperature for 90 minutes with gentle shaking. The reaction was stopped by the addition of 100 μL of buffer. 500 μL of 5% freshly prepared activated charcoal was added to the solution and mixed well by vortexing. The samples were centrifuged at 17568×g for 5 minutes. (14000 rpm). The supernatant was carefully transferred to fresh tube and 1.3 mL of scintillation fluid was added, mixed by vortexing.
The radioactivity was measured in a 1450 MicroBeta TriLux™ scintillation counter from Wallac-Perkin Elmer®, USA. The measurements were carried out in 2.0 mL Eppendorf™ tubes. Each tube was counted for 1 minute. The amount of tritiated acetic acid released is proportional to the lyase activity. Percent lyase activity in presence of inhibitor was calculated using the formula given below.
[formula] • Sample: Enzyme reaction in presence of inhibitor. • Positive control: Enzyme reaction without inhibitor but containing DMSO at 1% final concentration. • Blank—Contains all reagents except enzyme. • % Inhibition=100%−% Lyase activity
For IC50 determination, the % inhibition was plotted as a function of inhibitor concentration. The data was fitted to sigmoidal equation using Graphpad Prism® software IV to generate IC50 values.
`O=c1c2c(ccn1-c1cnccc1C(F)(F)F)[nH]c1ccccc12` [Example 63A, 2-(4-(trifluoromethyl)pyridin-3-yl)-2,5-dihydro-1H-pyrido[4,3-b]indol-1-one]: the “Lyase IC 50 nM Human” value is recorded as “NOT ACTIVE”.

Consider `O=C1c2ccc(F)cc2CCN1c1cnccc1C(F)(F)F` [Example 78A, 6-fluoro-2-(4-(trifluoromethyl)pyridin-3-yl)-3,4-dihydroisoquinolin-1(2H)-one], for which the “Lyase IC 50 nM Human” value is reported as “Not active”.

The same experiment, now with this note: human CYP17 lyase; substrate 0.25 μM; room temperature, 90 minutes; read-out: Lyase IC 50 nM Human.
Regarding `Cc1ccncc1N1CCc2c([nH]c3ccccc23)C1=O` [Example 61A, 2-(4-methylpyridin-3-yl)-2,3,4,9-tetrahydro-1H-pyrido[3,4-b]indol-1-one], the IC50 was found to be 1510 nM.

As to `Cc1ccncc1-n1ccc2[nH]c3ccccc3c2c1=O` [Example 62A, 2-(4-methylpyridin-3-yl)-2,5-dihydro-1H-pyrido[4,3-b]indol-1-one], the IC50 was 17 nM.

For the compound `O=c1c2c(ccn1-c1cnccc1C(F)(F)F)[nH]c1ccc(F)cc12` [Example 64A, 8-fluoro-2-(4-(trifluoromethyl)pyridin-3-yl)-2,5-dihydro-1H-pyrido[4,3-b]indol-1-one], the IC50 came out at 829 nM.

On to `Cc1ccncc1N1CCc2ccncc2C1=O` [Example 65A, 2-(4-methylpyridin-3-yl)-3,4-dihydro-2,7-naphthyridin-1(2H)-one], for which the IC50 turned out to be 1140 nM.

As for `Cc1ccncc1N1CCc2ccc3ncsc3c2C1=O` [Example 66A, 8-(4-methylpyridin-3-yl)-7,8-dihydrothiazolo[4,5-h]isoquinolin-9(6H)-one], the IC50 stood at 11 nM.

With `Cc1ccncc1N1CCc2cnccc2C1=O` [Example 67A, 2-(4-methylpyridin-3-yl)-3,4-dihydro-2,6-naphthyridin-1(2H)-one], the IC50 amounted to 716 nM.

Take `O=c1c2cc(C(F)(F)F)ccc2ccn1-c1cncc(F)c1` [Example 68A, 2-(5-fluoropyridin-3-yl)-7-(trifluoromethyl)isoquinolin-1(2H)-one]: the IC50 worked out at 282 nM.

Regarding `Cc1ccncc1N1CCc2cc3cn[nH]c3cc2C1=O` [Example 69A, 7-(4-methylpyridin-3-yl)-6,7-dihydro-1H-pyrazolo[4,3-g]isoquinolin-8(5H)-one], the IC50 was 93 nM.

`CC1Cc2ccc(C(F)(F)F)cc2C(=O)N1c1cnccc1C(F)(F)F` (centres unmarked) [Example 70A, 3-methyl-7-(trifluoromethyl)-2-(4-(trifluoromethyl)pyridin-3-yl)-3,4-dihydroisoquinolin-1(2H)-one]: the IC50 amounted to 744 nM.

As to `O=C1c2cc3[nH]ncc3cc2CCN1c1cnccc1C(F)(F)F` [Example 72A, 7-(4-(trifluoromethyl)pyridin-3-yl)-6,7-dihydro-1H-pyrazolo[4,3-g]isoquinolin-8(5H)-one], the IC50 came to 730 nM.

Turning to `O=C1c2cc(C(F)(F)F)ccc2CCN1c1cnccc1C1CC1` [Example 73A, 2-(4-cyclopropylpyridin-3-yl)-7-(trifluoromethyl)-3,4-dihydroisoquinolin-1(2H)-one], the IC50 amounted to 14 nM.

On to `O=C1c2cc(Cl)ccc2CCN1c1cnccc1C1CC1` [Example 74A, 7-chloro-2-(4-cyclopropylpyridin-3-yl)-3,4-dihydroisoquinolin-1 (2H)-one], for which the IC50 was 23 nM.

With `CCc1ccncc1N1CCc2ccc(Cl)cc2C1=O` [Example 75A, 7-chloro-2-(4-ethylpyridin-3-yl)-3,4-dihydroisoquinolin-1(2H)-one], the IC50 is 8 nM.

`O=C1c2c(sc3ccccc23)CCN1c1cnccc1C1CC1` [Example 76A, 2-(4-cyclopropylpyridin-3-yl)-3,4-dihydrobenzo[4,5]thieno[3,2-c]pyridin-1(2H)-one]: the IC50 was 4.2 nM.

Consider `O=C1c2c(ccc(C(F)(F)F)c2F)CCN1c1cnccc1C(F)(F)F` [Example 77A, 8-fluoro-7-(trifluoromethyl)-2-(4-(trifluoromethyl)pyridin-3-yl)-3,4-dihydroisoquinolin-1(2H)-one], for which the IC50 was 167 nM.

As for `O=C1c2cc(I)c(F)cc2CCN1c1cnccc1C(F)(F)F` [Example 79A, 6-fluoro-7-iodo-2-(4-(trifluoromethyl)pyridin-3-yl)-3,4-dihydroisoquinolin-1(2H)-one], the IC50 worked out at 19 nM.

Consider `O=C1c2cc(Cl)c(F)cc2CCN1c1cnccc1C(F)(F)F` [Example 80A, 7-chloro-6-fluoro-2-(4-(trifluoromethyl)pyridin-3-yl)-3,4-dihydroisoquinolin-1(2H)-one], for which the IC50 was determined as 173 nM.

As for `O=C1c2cc(Cl)c(F)cc2CCN1c1cnccc1C1CC1` [Example 82A, 7-chloro-2-(4-cyclopropylpyridin-3-yl)-6-fluoro-3,4-dihydroisoquinolin-1(2H)-one], the IC50 was found to be 3 nM.

Consider `Cc1ccncc1N1CCc2cc(F)c(Cl)cc2C1=O` [Example 84A, 7-chloro-6-fluoro-2-(4-methylpyridin-3-yl)-3,4-dihydroisoquinolin-1(2H)-one], for which the IC50 was 5.3 nM.

`O=C1c2cc(C(F)(F)F)c(Cl)cc2CCN1c1cnccc1C(F)(F)F` [Example 85A, 6-chloro-7-(trifluoromethyl)-2-(4-(trifluoromethyl)pyridin-3-yl)-3,4-dihydroisoquinolin-1(2H)-one]: the IC50 turned out to be 108 nM.

With `COc1cc2c(cc1Cl)C(=O)N(c1cnccc1C)CC2` [Example 86A, 7-chloro-6-methoxy-2-(4-methylpyridin-3-yl)-3,4-dihydroisoquinolin-1(2H)-one], the IC50 amounted to 11 nM.

Consider `Cc1ccncc1N1CCc2cc(C#N)c(Cl)cc2C1=O` [Example 88A, 7-chloro-2-(4-methylpyridin-3-yl)-1-oxo-1,2,3,4-tetrahydroisoquinoline-6-carbonitrile], for which the IC50 was determined as 11 nM.

With `COc1cc2c(cc1Cl)C(=O)N(c1cnccc1C1CC1)CC2` [Example 89A, 7-chloro-2-(4-cyclopropylpyridin-3-yl)-6-methoxy-3,4-dihydroisoquinolin-1(2H)-one], the IC50 is 10 nM.

As for `N#Cc1cc2c(cc1Cl)C(=O)N(c1cnccc1C1CC1)CC2` [Example 91A, 7-chloro-2-(4-cyclopropylpyridin-3-yl)-1-oxo-1,2,3,4-tetrahydroisoquinoline-6-carbonitrile], the IC50 was 11 nM.
